PMC9032825, “Docking, Binding Free Energy Calculations and In Vitro Characterization of Pyrazine Linked 2-Aminobenzamides as Novel Class I Histone Deacetylase (HDAC) Inhibitors” (Molecules, 2022)
Where two headings read alike, the source gives them in different places.

Key:
human HDAC1 [1] = biological target: T1, human HDAC1 (Homo sapiens, UniProt Q13547); settings: training set, from in vitro IC50; cited from earlier work
human HDAC2 [2] = biological target: T2, human HDAC2 (Homo sapiens, UniProt Q92769); settings: training set, from in vitro IC50; cited from earlier work
T2 sequence (Q92769 whole entry): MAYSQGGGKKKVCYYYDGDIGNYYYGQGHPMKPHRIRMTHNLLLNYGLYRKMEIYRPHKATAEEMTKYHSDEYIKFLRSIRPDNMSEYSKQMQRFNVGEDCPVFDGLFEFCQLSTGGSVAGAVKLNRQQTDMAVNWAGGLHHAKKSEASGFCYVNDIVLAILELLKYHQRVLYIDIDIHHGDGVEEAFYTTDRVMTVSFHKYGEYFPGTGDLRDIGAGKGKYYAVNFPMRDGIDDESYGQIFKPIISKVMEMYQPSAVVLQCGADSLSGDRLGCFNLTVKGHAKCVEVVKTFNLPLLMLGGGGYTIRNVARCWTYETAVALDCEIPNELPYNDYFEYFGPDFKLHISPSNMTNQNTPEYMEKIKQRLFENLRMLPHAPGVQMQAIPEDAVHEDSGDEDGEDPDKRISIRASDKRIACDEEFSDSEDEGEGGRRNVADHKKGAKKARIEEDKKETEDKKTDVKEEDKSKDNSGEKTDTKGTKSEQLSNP

human HDAC3 [3] = biological target: T3, human HDAC3 (Homo sapiens, UniProt O15379); settings: training set, from in vitro IC50; cited from earlier work
T3 sequence (O15379 whole entry): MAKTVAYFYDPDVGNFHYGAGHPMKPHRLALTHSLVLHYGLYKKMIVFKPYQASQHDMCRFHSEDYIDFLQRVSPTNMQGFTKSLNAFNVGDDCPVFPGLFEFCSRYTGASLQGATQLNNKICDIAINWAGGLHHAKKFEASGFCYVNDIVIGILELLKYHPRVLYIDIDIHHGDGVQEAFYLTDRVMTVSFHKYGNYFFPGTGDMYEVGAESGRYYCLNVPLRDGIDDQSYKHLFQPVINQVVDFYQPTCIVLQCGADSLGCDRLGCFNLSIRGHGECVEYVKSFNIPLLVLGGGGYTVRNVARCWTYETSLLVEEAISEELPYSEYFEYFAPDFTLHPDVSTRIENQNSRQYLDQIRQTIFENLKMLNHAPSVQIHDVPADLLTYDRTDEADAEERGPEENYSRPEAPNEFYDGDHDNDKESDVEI
T3 sequence (O75376 395-489 partner limits assumed): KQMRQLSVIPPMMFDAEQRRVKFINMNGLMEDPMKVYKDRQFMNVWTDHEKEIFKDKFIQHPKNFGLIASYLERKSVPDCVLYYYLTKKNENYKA

human HDAC1 [4] = biological target: T1, human HDAC1; assay: HDAC1 inhibition, fluorogenic peptide substrate Ac-RHKK(Acetyl)-AMC; assay type: biochemical; settings: test set
Experimental: (§1) HDAC1, 2, 3 inhibitory activity for the novel inhibitors was performed as previously reported. To keep the test number small, we applied a two-step screening.
(§2) A fluorogenic peptide derived from p53 (Ac-RHKK(Acetyl)-AMC) was used as substrate. The measurements were performed in an assay buffer (50 mM Hepes, 150 mM NaCl, 5 mM MgCl2, 1 mM TCEP and 0.2 mg/mL BSA, pH 7.4 adjusted with NaOH) at 37 °C. Inhibitors at different concentrations were incubated with 10 nM HDAC1, 3 nM HDAC2 or 3 nM HDAC3 (final concentration) for at least 5 min. The reaction was started with the addition of the fluorogenic substrate (20 µM final concentration) and incubated for 30 min for HDAC2 and HDAC3 and 90 min for HDAC1. The reaction was stopped with a solution of 1 mg/mL trypsin in 1 mM HCl and incubated for 1 h at 37 °C. The fluorescence intensity was recorded with an Envision 2104 Multilabel Plate Reader (PerkinElmer, Waltham, MA) with an excitation wavelength of 380 ± 8 nm and an emission wavelength of 430 ± 8 nm. The received fluorescence intensities were normalized with uninhibited reaction as 100% and the reaction without enzyme as 0%. A nonlinear regression analysis was done to determine the IC50 value.

human HDAC2 [5] = biological target: T2, human HDAC2; assay: HDAC2 inhibition, fluorogenic peptide substrate Ac-RHKK(Acetyl)-AMC; assay type: biochemical; settings: test set
Experimental: as §1, §2

human HDAC3 [6] = biological target: T3, human HDAC3; assay: HDAC3 inhibition, fluorogenic peptide substrate Ac-RHKK(Acetyl)-AMC; assay type: biochemical; settings: test set
Experimental: as §1, §2

T1 sequence (Q13547 whole entry): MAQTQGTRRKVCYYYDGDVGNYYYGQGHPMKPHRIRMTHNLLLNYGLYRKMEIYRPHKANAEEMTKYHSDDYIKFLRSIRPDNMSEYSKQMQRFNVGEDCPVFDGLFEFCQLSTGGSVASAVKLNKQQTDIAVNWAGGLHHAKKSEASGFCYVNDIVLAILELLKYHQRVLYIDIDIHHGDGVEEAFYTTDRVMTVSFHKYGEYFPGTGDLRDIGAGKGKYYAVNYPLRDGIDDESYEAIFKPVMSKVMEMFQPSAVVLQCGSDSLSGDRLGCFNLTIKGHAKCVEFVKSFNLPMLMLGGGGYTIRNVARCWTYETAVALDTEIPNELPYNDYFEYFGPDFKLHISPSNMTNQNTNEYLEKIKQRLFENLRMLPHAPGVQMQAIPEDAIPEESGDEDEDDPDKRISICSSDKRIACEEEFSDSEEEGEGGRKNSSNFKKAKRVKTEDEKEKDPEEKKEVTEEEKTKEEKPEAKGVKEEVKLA

Compound | HDAC1-pIC50 (human HDAC1 [1]) | HDAC2-pIC50 (human HDAC2 [2]) | HDAC3-pIC50 (human HDAC3 [3]) | other results
Nc1ccccc1NC(=O)c1cnc(N2CCN(CCc3ccccc3)CC2)cn1 [19a] | 6.29 | 6.10 | 5.95 | 
Nc1ccccc1NC(=O)c1cnc(N2CCN(Cc3ccccn3)CC2)cn1 [19d] | 6.28 | 5.84 | 5.97 | 
Nc1ccccc1NC(=O)c1cnc(N2CCN(Cc3csc4ccccc34)CC2)cn1 [19e] | 6.68 | 6.15 | 6.08 | 
Nc1ccccc1NC(=O)c1cnc(N2CCN(CCc3c[nH]c4ccccc34)CC2)cn1 [19g] | 6.51 | 6.02 | 6.31 | 
Nc1cc(F)c(F)cc1NC(=O)c1cnc(N2CCN(CCc3c[nH]c4ccccc34)CC2)cn1 [19h] | 6.09 | 6.13 | 6.24 | 
Nc1cc(Cl)ccc1NC(=O)c1cnc(N2CCN(CCc3c[nH]c4ccccc34)CC2)cn1 [19i] | 5.52 | 5.57 | 5.72 | 
Cn1cc(CN2CCN(c3ncc(C(=O)Nc4ccccc4N)cn3)CC2)c2ccccc21 [19j] | 6.35 | 6.03 | 5.76 | 
Cn1cc(CN2CCN(c3cnc(C(=O)Nc4ccccc4N)cn3)CC2)c2ccccc21 [19k] | 6.85 | 6.25 | 6.23 | 
Cn1cc(CN2CCN(c3cnc(C(=O)Nc4cc(F)c(F)cc4N)cn3)CC2)c2ccccc21 [19l] | 6.54 | 6.25 | 6.09 | 
Cn1cc(CCN2CCN(c3cnc(C(=O)Nc4ccc(F)cc4N)cn3)CC2)c2ccccc21 [19m] | 6.40 | 5.83 | 6.40 | 
Cn1cc(CCN2CCN(c3cnc(C(=O)Nc4cc(-c5cccs5)ccc4N)cn3)CC2)c2ccccc21 [21a] | 6.59 | 5.61 |  | 
Nc1ccc(-c2ccc(F)cc2)cc1NC(=O)c1cnc(N2CCN(CCc3c[nH]c4ccccc34)CC2)cn1 [21b] | 6.15 | 6.11 |  | 
Nc1ccc(-c2ccccc2F)cc1NC(=O)c1cnc(N2CCN(CCc3c[nH]c4ccccc34)CC2)cn1 [21c] | 6.12 | 6.12 | 4.82 | 
Nc1cc(F)ccc1NC(=O)c1cnc(N2CCNCC2)cn1 [23a] | 5.48 | 5.66 | 6.40 | 
Cn1cc(CN2CCN(c3cnc(C(=O)Nc4cc(F)ccc4N)cn3)CC2)c2ccccc21 [23b] | 6.57 | 6.30 | 6.30 | 
Cn1cc(CCN2CCN(c3cnc(C(=O)Nc4cc(F)ccc4N)cn3)CC2)c2ccccc21 [23c] | 6.48 | 5.86 | 6.23 | 
Nc1cc(Cl)ccc1NC(=O)c1cnc(N2CCNCC2)cn1 [25a] |  |  | 5.06 | 
Nc1cc(F)c(F)cc1NC(=O)c1cnc(N2CCNCC2)cn1 [25b] | 5.37 | 5.38 | 5.80 | 
COc1ccc(NC(=O)c2cnc(N3CCNCC3)cn2)c(N)c1 [27c] | 4.7 | 4.85 | 4.85 | 
CN1CCN(c2cnc(C(=O)Nc3cc(-c4ccsc4)ccc3N)cn2)CC1 [29a] | 6.96 | 6.74 | 5.36 | 
Nc1ccc(-c2cccs2)cc1NC(=O)c1cnc(N2CCNCC2)cn1 [29b] | 7.15 | 6.59 | 5.21 | 
Nc1ccc(-c2ccc(F)cc2)cc1NC(=O)c1cnc(N2CCNCC2)cn1 [29c] | 6.80 | 6.47 | 5.17 | 
CN1CCN(c2cnc(C(=O)Nc3cc(-c4ccccc4F)ccc3N)cn2)CC1 [29d] | 6.74 | 6.59 | 4.92 | 
CN1CCN(c2ncc(C(=O)Nc3cc(-c4cccs4)ccc3N)cn2)CC1 [30a] |  |  |  | IC50 (human HDAC1 [4]; read-out: Experimental HDAC1 pIC50 (converted)): 324 nM; IC50 (human HDAC2 [5]): 610 ± 20 nM; inhibition at 1 µM (human HDAC3 [6]; @1 µM): 8%; inhibition at 10 µM (human HDAC3 [6]; @10 µM): 38%
CN1CCN(c2cnc(C(=O)Nc3cc(-c4cccs4)ccc3N)cn2)CC1 [30b] |  |  |  | Experimental HDAC1 pIC50 (human HDAC1 [4]): 7.39; IC50 (human HDAC1 [4]; read-out: HDAC1 IC50): 40 ± 6 nM; Experimental HDAC2 pIC50 (human HDAC2 [5]): 6.10; IC50 (human HDAC2 [5]): 790 ± 20 nM; HDAC3 % inhibition (human HDAC3 [6]; @1 µM): 6%; HDAC3 % inhibition (human HDAC3 [6]; @10 µM): 35%
CC(=O)N1CCN(c2cnc(C(=O)Nc3cc(-c4cccs4)ccc3N)cn2)CC1 [30c] |  |  |  | Experimental HDAC1 pIC50 (human HDAC1 [4]): 7.72; IC50 (human HDAC1 [4]; read-out: HDAC1 IC50): 19 ± 1 nM; Experimental HDAC2 pIC50 (human HDAC2 [5]): 5.96; IC50 (human HDAC2 [5]): 1100 ± 100 nM; HDAC3 % inhibition (human HDAC3 [6]; @1 µM): 4%; HDAC3 % inhibition (human HDAC3 [6]; @10 µM): 30%
CC(=O)N1CCN(c2cnc(C(=O)Nc3ccccc3N)cn2)CC1 [30d] |  |  |  | Experimental HDAC1 pIC50 (human HDAC1 [4]): 5.72; IC50 (human HDAC1 [4]; read-out: HDAC1 IC50): 1900 ± 100 nM; Experimental HDAC2 pIC50 (human HDAC2 [5]): 4.62; IC50 (human HDAC2 [5]): 24000 ± 2000 nM; HDAC3 % inhibition (human HDAC3 [6]; @1 µM): 15%; HDAC3 % inhibition (human HDAC3 [6]; @10 µM): 72%
Nc1cc(F)ccc1NC(=O)c1ccc(C(=O)NCc2ccccc2)cc1 [31a] |  |  |  | inhibition at 1 µM (human HDAC1 [4]): 4%; inhibition at 10 µM (human HDAC1 [4]): 31%; inhibition at 1 µM (human HDAC2 [5]): 10%; inhibition at 10 µM (human HDAC2 [5]): 37%; inhibition at 1 µM (human HDAC3 [6]; @1 µM): 21%; inhibition at 10 µM (human HDAC3 [6]; @10 µM): 65%
Nc1cc(F)ccc1NC(=O)c1ccc(C(=O)NCc2ccncc2)cc1 [31b] |  |  |  | inhibition at 1 µM (human HDAC1 [4]): 0%; inhibition at 10 µM (human HDAC1 [4]): 27%; inhibition at 1 µM (human HDAC2 [5]): 13%; inhibition at 10 µM (human HDAC2 [5]): 30%; inhibition at 1 µM (human HDAC3 [6]; @1 µM): 19%; inhibition at 10 µM (human HDAC3 [6]; @10 µM): 59%
Nc1cc(F)ccc1NC(=O)c1ccc(C(=O)NCc2cccnc2)cc1 [31c] |  |  |  | inhibition at 1 µM (human HDAC1 [4]): 6%; inhibition at 10 µM (human HDAC1 [4]): 36%; inhibition at 1 µM (human HDAC2 [5]): 14%; inhibition at 10 µM (human HDAC2 [5]): 51%; inhibition at 1 µM (human HDAC3 [6]; @1 µM): 25%; inhibition at 10 µM (human HDAC3 [6]; @10 µM): 66%
